Source: US20200190073A1, “SUBSTITUTED SUCCINIMIDE DERIVATIVES AS PESTICIDES” (BASF SE, priority 2017, published 2020)

Legend:
Type in all cases: in vivo
[1] = tested on: Neotropical Brown Stink Bug (Euschistus heros); assay: B.12 Neotropical brown stink bug, dipped pole bean; conditions: 120 h, read-out: mortality in comparison with untreated controls
Procedure: B.12 Neotropical Brown Stink Bug (Euschistus heros)
For evaluating control of Euschistus heros through contact the test unit consisted of 100 ml disposable plastic beakers with transparent lids.
The compounds were formulated using a solution containing 50% water and 50% acetone. 50 ml of different concentrations of formulated compounds or mixtures were prepared in a glass petri dish and used for dipping three 6 cm sections of fresh pole bean. Each treatment was replicated eight times.
After application, the pole bean sections were air-dried and 5 adult E. heros placed in each beaker. The E. heros were then allowed to suck on the treated pole bean sections and incubated at 23±1° C., 50±5% RH for 5 days. E. heros mortality was then visually assessed.

[2] = tested on: Diamond back moth (Plutella xylostella); assay: B.1 Diamond back moth, cabbage leaf dip; conditions: foliar, 72 h, read-out: mortality in comparison with untreated controls
Procedure: B.1 Diamond back moth (Plutella xylostella)
The active compound was dissolved at the desired concentration in a mixture of 1:1 (vol:vol) distilled water:acetone. Surfactant (Kinetic HV) was added at a rate of 0.01% (vol/vol). The test solution was prepared at the day of use.
Leaves of cabbage were dipped in test solution and air-dried. Treated leaves were placed in petri dishes lined with moist filter paper and inoculated with ten 3rd instar larvae. Mortality was recorded 72 hours after treatment. Feeding damages were also recorded using a scale of 0-100%.

[3] = tested on: Rice Green Leafhopper (Nephotettix virescens); assay: B.8 Rice green leafhopper, sprayed rice seedlings; conditions: 72 h, read-out: mortality in comparison with untreated controls
Procedure: B.8 Rice Green Leafhopper (Nephotettix virescens)
(§1) Rice seedlings were cleaned and washed 24 hours before spraying. The active compounds were formulated in 1:1 acetone:water (vol:vol), and 0.01% vol/vol surfactant (Kinetic HV) was added. Potted rice seedlings were sprayed with 5-6 ml test solution, air dried, covered with Mylar cages and inoculated with 10 adults. Treated rice plants were kept at about 28-29° C. and relative humidity of about 50-60%. Percent mortality was recorded after 72 hours.

[4] = tested on: Orchid Thrips (Dichromothrips Corbetti); assay: B.7 Orchid thrips, floral immersion; conditions: Thrips, 72 h, read-out: mortality in comparison with untreated controls
Procedure: B.7 Orchid Thrips (Dichromothrips Corbetti)
Dichromothrips corbetti adults used for bioassay were obtained from a colony maintained continuously under laboratory conditions. For testing purposes, the test compound is diluted in a 1:1 mixture of acetone:water (vol:vol), plus Kinetic HV at a rate of 0.01% v/v.
Thrips potency of each compound was evaluated by using a floral-immersion technique. All petals of individual, intact orchid flowers were dipped into treatment solution and allowed to dry in Petri dishes. Treated petals were placed into individual re-sealable plastic along with about 20 adult thrips. All test arenas were held under continuous light and a temperature of about 28° C. for duration of the assay. After 3 days, the numbers of live thrips were counted on each petal. The percent mortality was recorded 72 hours after treatment.

[5] = tested on: Boll Weevil (Anthonomus grandis); assay: B.5 Boll weevil, insect diet with eggs; conditions: 120 h, read-out: mortality in comparison with untreated controls
Procedure: B.5 Boll Weevil (Anthonomus grandis)
For evaluating control of boll weevil (Anthonomus grandis) the test unit consisted of 96-well-microtiter plates containing an insect diet and 5-10 A. grandis eggs.
The compounds were formulated using a solution containing 75% v/v water and 25% v/v DMSO. Different concentrations of formulated compounds were sprayed onto the insect diet at 5 μl, using a custom built micro atomizer, at two replications.
After application, microtiter plates were incubated at about 25±1° C. and about 75±5% relative humidity for 5 days. Egg and larval mortality was then visually assessed.

[6] = tested on: Green Soldier Stink Bug (Nezara viridula); assay: B.11 Green soldier stink bug, sprayed soybean pods; conditions: 120 h, read-out: mortality in comparison with untreated controls
Procedure: B.11 Green Soldier Stink Bug (Nezara viridula)
The active compound was dissolved at the desired concentration in a mixture of 1:1 (vol:vol) distilled water:acetone. Surfactant (Kinetic HV) was added at a rate of 0.01% (vol/vol). The test solution was prepared at the day of use. Soybean pods were placed in glass Petri dishes lined with moist filter paper and inoculated with ten late 3rd instar N. viridula. Using a hand atomizer, approximately 2 ml solution is sprayed into each Petri dish. Assay arenas were kept at about 25° C. Percent mortality was recorded after 5 days.

[7] = tested on: Tobacco Budworm (Heliothis virescens); assay: B.4 Tobacco budworm, insect diet with eggs; conditions: 120 h, read-out: mortality in comparison with untreated controls
Procedure: B.4 Tobacco Budworm (Heliothis virescens)
For evaluating control of tobacco budworm (Heliothis virescens) the test unit consisted of 96-well-microtiter plates containing an insect diet and 15-25 H. virescens eggs.
The compounds were formulated using a solution containing 75% v/v water and 25% v/v DMSO. Different concentrations of formulated compounds were sprayed onto the insect diet at 10 μl, using a custom built micro atomizer, at two replications.
After application, microtiter plates were incubated at about 28±1° C. and about 80±5% relative humidity for 5 days. Egg and larval mortality was then visually assessed.

[8] = tested on: Green Peach Aphid (Myzus persicae); assay: B.2 Green peach aphid, artificial diet, systemic; conditions: 72 h, read-out: mortality in comparison with untreated controls
Text: B.2 Green Peach Aphid (Myzus persicae)
For evaluating control of green peach aphid (Myzus persicae) through systemic means the test unit consisted of 96-well-microtiter plates containing liquid artificial diet under an artificial mem brane.
The compounds were formulated using a solution containing 75% v/v water and 25% v/v DMSO. Different concentrations of formulated compounds were pipetted into the aphid diet, using a custom built pipetter, at two replications.
After application, 5-8 adult aphids were placed on the artificial membrane inside the microtiter plate wells. The aphids were then allowed to suck on the treated aphid diet and incubated at about 23±1° C. and about 50±5% relative humidity for 3 days. Aphid mortality and fecundity was then visually assessed.

[9] = tested on: Vetch Aphid (Megoura viciae); assay: B.3 Vetch aphid, broad bean leaf disks; conditions: foliar, 120 h, read-out: mortality in comparison with untreated controls
Procedure: B.3 Vetch Aphid (Megoura viciae)
For evaluating control of vetch aphid (Megoura viciae) through contact or systemic means the test unit consisted of 24-well-microtiter plates containing broad bean leaf disks.
The compounds were formulated using a solution containing 75% v/v water and 25% v/v DMSO. Different concentrations of formulated compounds were sprayed onto the leaf disks at 2.5 μl, using a custom built micro atomizer, at two replications.
After application, the leaf disks were air-dried and 5-8 adult aphids placed on the leaf disks inside the microtiter plate wells. The aphids were then allowed to suck on the treated leaf disks and incubated at about 23±1° C. and about 50±5% relative humidity for 5 days. Aphid mortality and fecundity was then visually assessed.

[10] = tested on: Red Spider Mite (Tetranychus kanzawai); assay: B.9 Red spider mite, sprayed cowpea beans; conditions: 72 h, read-out: mortality in comparison with untreated controls
Procedure: B.9 Red Spider Mite (Tetranychus kanzawai)
The active compound was dissolved at the desired concentration in a mixture of 1:1 (vol:vol) distilled water:acetone. Add surfactant (Kinetic HV) was added at a rate of 0.01% (vol/vol).The test solution was prepared at the day of use.
Potted cowpea beans of 4-5 days of age were cleaned with tap water and sprayed with 1-2 ml of the test solution using air driven hand atomizer. The treated plants were allowed to air dry and afterwards inoculated with 30 or more mites by clipping a cassava leaf section from rearing population. Treated plants were placed inside a holding room at about 25-27° C. and about 50-60% relative humidity. Percent mortality was assessed 72 hours after treatment.

[11] = tested on: Orchid Thrips (Dichromothrips Corbetti); assay: CE.3 Orchid thrips, comparative test; conditions: 96 h, read-out: % mortality in comparison to untreated controls
Procedure: (§2) The tables show % mortality in comparison to untreated controls.
CE.3 Orchid Thrips (Dichromothrips Corbetti)
Dichromothrips corbetti adults used for bioassay were obtained from a colony maintained continuously under laboratory conditions. For testing purposes, the test compound was diluted to a concentration of 300 ppm (wt compound: vol diluent) in a 1:1 mixture of acetone:water (vol:vol), plus 0.01% vol/vol Kinetic® surfactant.
Thrips potency of each compound was evaluated by using a floral-immersion technique. Plastic petri dishes were used as test arenas. All petals of individual, intact orchid flowers were dipped into treatment solution and allowed to dry. Treated flowers were placed into individual petri dishes along with 10-15 adult thrips. The petri dishes were then covered with lids. All test arenas were held under continuous light and a temperature of about 280C for duration of the assay. After 4 days, the numbers of live thrips were counted on each flower, and along inner walls of each petri dish. The level of thrips mortality was extrapolated from pre-treatment thrips numbers.

[12] = tested on: Rice Green Leafhopper (Nephotettix virescens); assay: CE.5 Rice green leafhopper, comparative test; conditions: 72 h, read-out: % mortality in comparison to untreated controls
Procedure: as §2
CE.5 Rice Green Leafhopper (Nephotettix virescens)
as §1, with “50:50” for “1:1”, “0.1%” for “0.01%”, “(EL 620)” for “(Kinetic HV)”, “5” for “5-6”, “placed in” for “covered with Mylar”

| SMILES | mortality at 500 ppm [1] [%] | mortality at 300 ppm [2] [%] | mortality at 300 ppm [3] [%] | mortality at 300 ppm [4] [%] | mortality at 2500 ppm [5] [%] | mortality at 300 ppm [6] [%] | mortality at 2500 ppm [7] [%] | mortality at 2500 ppm [8] [%] | mortality at 2500 ppm [9] [%] | mortality at 300 ppm [10] [%] | mortality at 10 ppm [11] [%] | mortality at 3 ppm [12] [%] |
| --- | --- | --- | --- | --- | --- | --- | --- | --- | --- | --- | --- | --- |
| O=C(N[C@@H]1CC(=O)N(C2CC2)C1=O)c1ccc(C2=NO[C@@](c3cc(Cl)c(F)c(Cl)c3)(C(F)(F)F)C2)cc1Cl [Compound I-1-25, 2-Chloro-N-[(3R)-1-cyclopropyl-2,5-dioxo-pyrrolidin-3-yl]-4-[(5S)-5-(3,5-dichloro-4-fluoro-phenyl)-5-(trifluoromethyl)-4H-isoxazol-3-yl]benzamide] | > 75 | > 75 | > 75 | > 75 | > 75 | > 75 | > 75 | > 75 | > 75 | > 75 |  |  |
| O=C(N[C@@H]1CC(=O)N(O)C1=O)c1ccc(C2=NOC(c3cc(Cl)c(F)c(Cl)c3)(C(F)(F)F)C2)cc1Cl (stereo partly drawn) [Compound I-1-33, 2-Chloro-4-[5-(3,5-dichloro-4-fluoro-phenyl)-5-(trifluoromethyl)-4H-isoxazol-3-yl]-N-[(3R)-1-hydroxy-2,5-dioxo-pyrrolidin-3-yl]benzamide] |  | > 75 |  | > 75 | > 75 |  | > 75 | > 75 |  |  |  |  |
| CNN1C(=O)C[C@@H](NC(=O)c2ccc(C3=NOC(c4cc(Cl)cc(Cl)c4)(C(F)(F)F)C3)cc2C)C1=O (stereo partly drawn) [Compound I-1-45, 4-[5-(3,5-Dichlorophenyl)-5-(trifluoromethyl)-4H-isoxazol-3-yl]-2-methyl-N-[(3R)-1-(methylamino)-2,5-dioxo-pyrrolidin-3-yl]benzamide] |  | > 75 |  | > 75 | > 75 | > 75 | > 75 | > 75 | > 75 | > 75 |  |  |
| CCN1C(=O)C[C@@H](NC(=O)c2ccc(C3=NOC(c4cc(Cl)c(F)c(Cl)c4)(C(F)(F)F)C3)cc2C)C1=O (stereo partly drawn) [Compound I-1-50] |  | > 75 | > 75 | > 75 | > 75 | > 75 | > 75 | > 75 | > 75 | > 75 | 100 |  |
| CCN1C(=O)C[C@@H](NC(=O)c2ccc(C3=NOC(c4cc(Cl)cc(Cl)c4)(C(F)(F)F)C3)cc2C)C1=O (stereo partly drawn) [Compound I-1-51] |  | > 75 | > 75 | > 75 | > 75 | > 75 | > 75 | > 75 | > 75 | > 75 | 100 | 90 |
| CON1C(=O)C[C@@H](NC(=O)c2ccc(C3=NOC(c4cc(Cl)cc(Cl)c4)(C(F)(F)F)C3)cc2C)C1=O (stereo partly drawn) [Compound I-1-55, 4-[5-(3,5-Dichlorophenyl)-5-(trifluoromethyl)-4H-isoxazol-3-yl]-N-[(3R)-1-methoxy-2,5-dioxo-pyrrolidin-3-yl]-2-methyl-benzamide] |  | > 75 | > 75 | > 75 | > 75 | > 75 | > 75 | > 75 | > 75 | > 75 |  |  |
| Cc1cc(C2=NOC(c3cc(Cl)c(F)c(Cl)c3)(C(F)(F)F)C2)ccc1C(=O)N[C@@H]1CC(=O)N(CC(F)(F)F)C1=O (stereo partly drawn) [Compound I-1-57] |  | > 75 | > 75 | > 75 | > 75 |  | > 75 | > 75 | > 75 | > 75 | 100 |  |
| O=C(N[C@@H]1CC(=O)N(CC(F)(F)F)C1=O)c1ccc(C2=NOC(c3cc(Cl)c(F)c(Cl)c3)(C(F)(F)F)C2)cc1Cl (stereo partly drawn) [Compound I-1-59] |  | > 75 | > 75 | > 75 | > 75 | > 75 | > 75 | > 75 | > 75 | > 75 | 100 |  |
